Source: article PMC9246714, “Characterization of inositol lipid metabolism in gut-associated Bacteroidetes” (Nature Microbiology, 2022)

T1: BT_1526 MIPS (Bacteroides thetaiotaomicron, UniProt Q8A7J8)
T1 construct: full-length wild-type ORF (synthetic gene), pET-28a, N-terminal His6 tag, E. coli BL21(DE3); HisTrap and Superdex S200; tetramer in crystal
T1 sequence (Q8A7J8 1-429): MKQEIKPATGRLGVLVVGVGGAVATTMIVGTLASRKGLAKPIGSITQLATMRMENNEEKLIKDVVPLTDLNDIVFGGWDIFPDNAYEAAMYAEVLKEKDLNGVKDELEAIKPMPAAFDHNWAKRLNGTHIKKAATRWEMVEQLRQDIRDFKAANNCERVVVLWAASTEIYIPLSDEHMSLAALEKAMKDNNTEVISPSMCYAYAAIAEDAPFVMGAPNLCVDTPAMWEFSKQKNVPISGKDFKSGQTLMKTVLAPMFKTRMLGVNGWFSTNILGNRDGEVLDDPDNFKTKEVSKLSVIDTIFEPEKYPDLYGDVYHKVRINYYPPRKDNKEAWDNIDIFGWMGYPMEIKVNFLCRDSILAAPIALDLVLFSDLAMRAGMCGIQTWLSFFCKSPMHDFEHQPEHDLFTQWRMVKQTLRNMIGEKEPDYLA


How the values were obtained:
BT_1526 MIPS = biological target: T1, BT_1526 MIPS; assay: X-ray crystal structure, […] Å; conditions: cofactor binding site; crystals grown at pH 6.5, 20 °C
[1] = biological target: the molecule itself; assay: crystal structure; sitting drop vapour diffusion, 20 °C; 200 mM sodium formate, 100 mM bis tris propane pH 6.5, 20% (w/v) PEG 3350; protein at 11.4 mg/ml; MIPS:NAD complex

Molecule | X-ray crystal structure, 2.0 Å (BT_1526 MIPS) | stoichiometry N [1]
NC(=O)c1ccc[n+]([C@@H]2O[C@H](COP(=O)(O)OP(=O)(O)OC[C@H]3O[C@@H](n4cnc5c(N)ncnc54)[C@H](O)[C@@H]3O)[C@@H](O)[C@H]2O)c1 [NAD, NAD+] | the structure of the MIPS:NAD complex in the cofactor binding site | –
BT_1526 myo-inositol phosphate synthase (MIPS) of Bacteroides thetaiotaomicron (enzyme, UniProt Q8A7J8 1-429, looked up, myo-inositol phosphate synthase BT_1526 of Bacteroides thetaiotaomicron VPI-5482; synthetic gene encoding the BT_1526 open reading frame (wild type) in pET-28a; No cleavage of the His tag is described; also called BT_1526 MIPS; BT MIP synthase; source: E. coli BL21 (DE3), purified (HisTrap, Superdex S200 size-exclusion chromatography)) MKQEIKPATGRLGVLVVGVGGAVATTMIVGTLASRKGLAKPIGSITQLATMRMENNEEKLIKDVVPLTDLNDIVFGGWDIFPDNAYEAAMYAEVLKEKDLNGVKDELEAIKPMPAAFDHNWAKRLNGTHIKKAATRWEMVEQLRQDIRDFKAANNCERVVVLWAASTEIYIPLSDEHMSLAALEKAMKDNNTEVISPSMCYAYAAIAEDAPFVMGAPNLCVDTPAMWEFSKQKNVPISGKDFKSGQTLMKTVLAPMFKTRMLGVNGWFSTNILGNRDGEVLDDPDNFKTKEVSKLSVIDTIFEPEKYPDLYGDVYHKVRINYYPPRKDNKEAWDNIDIFGWMGYPMEIKVNFLCRDSILAAPIALDLVLFSDLAMRAGMCGIQTWLSFFCKSPMHDFEHQPEHDLFTQWRMVKQTLRNMIGEKEPDYLA | – | 4
